The conditions of data set [1]: preservative not tested (nt) in emulsion; cited from earlier work.
Data set [2] can be described thus: Measurement of consistency (TAXT+ texture analyser). To be noted: ingredient added to glycerol/Vaseline/liquid paraffin emulsion. Format: physicochemical. As to the method:
The measurement of consistency is carried out at room temperature (around 20° C.) in a 250 mL glass jar filled to 200 g. The measurement is performed using a TAXT+type texture analyser (Swantec). The consistency of the product is represented by the maximum resistance force of the probe in the product, which is directly proportional to the measured mass. The consistency value is expressed in g.
• 250 g glass jar filled to 200 g • P25 steel cylinder
• Pre-speed: 4 mm/s • Speed: 8 mm/s • Post-speed: 8 mm/s • Displacement: 20 mm • Triggering threshold: 5 g
Fill the container (glass jar) without introducing air into the product.
Tap the jar so as to pack down the cream and to obtain the smoothest surface possible.
Maintain the jar closed […] before carrying out the measurement.

SMILES strings stand for the structures.

For `OB(O)O` [Boric acid], in data set [1], the Comments/other aspects result is on record as “irritant”.
In the case of `O.O.O.O.O.O.O.O.O.O.[Na+].[Na+].[O-]B1OB2OB([O-])OB(O1)O2` [Sodium borate], the Comments/other aspects entry in data set [1] is “irritant”.
On to `CCCCC(O)CO` (stereo not shown) [1,2 hexanediol], for which, in data set [2], the “Effect on the consistency and/or the viscosity of the emulsion” value is given as “fluidification of the formula”.
On to `CCCCC(CC)COCC(O)CO` (stereo not shown) [ethylhexyl glycerin], for which the “Effect on the consistency and/or the viscosity of the emulsion” value in data set [2] is on record as “fluidification of the formula”.

These data come from patent US20250025383A1, “EMOLLIENT COMPOSITION IN EMULSION FORM” (PIERRE FABRE MEDICAMENT, priority 2018, published 2025).
